# Assay results taken from paper PMC12530846, “Development of Novel Anticancer Pyrazolopyrimidinones Targeting Glioblastoma” (Chemmedchem, 2025).
# pIC50: −log10 of the molar value. Read-outs that look alike come from different tables or passages of the source.
# How the values were obtained:
# [1] = test system: U‐251 MG and HEK293 cells; experiment: Statistical comparison of dose–response in U‐251 MG versus HEK293 (selectivity, HIT criteria); type: cell-based, human; conditions: for Selectivity for cancer cells with IC50 < 50 [µM]‐Yes/No: HEK293 IC50 higher than U‐251 MG IC50, U‐251 MG IC50 below 50 µM; for All criteria met -Yes/No: HIT criteria and statistical testing, Table S1
# HEK293 cells = experiment: MTT cell viability assay, noncancerous HEK293 cells, 5 days treatment; type: cell-based, human; conditions: for pIC50: 5 days treatment, 100–0 µM
# Description: (§1) Dose–response curves for each of the pyrazolo[1,5‐α]pyrimidinones were performed to determine the cytotoxic effect of the compounds on a cancerous, U‐251 MG cell line and a noncancerous, HEK293 cell line. The synthesized pyrazolopyrimidinones were dissolved in DMSO (Merck) to obtain a stock solution which was stored at −20 °C. […] U‐251 MG and HEK293 cells were seeded at a density of 2 x 10^3 cells per well (100 μL) in a 96‐well plate (Sarstedt) and incubated for 24 h prior to each treatment to allow for cell adhesion. The stock solution was diluted in media to working concentrations of 100, 75, 50, 25, 10, 5, and 0.1 μM. Media on the seeded cells was then replaced with the working concentrations of the compound or the controls in a 96‐well plate (100 μL). The treated plate was incubated at 37 °C in the humidified incubator for 5 days. Cell viability was assessed after 5 days using the MTT assay. Dose–response curves were then plotted relative to the positive control whereby cells were treated 20% DMSO and a negative control whereby cells were maintained in fresh DMEM.
# (§2) To determine the extent of the cytotoxic effect of the pyrazolopyrimidinone on each cell line, the cell viability at each working concentration was determined via the MTT assay (Merck). The working solution of MTT used was 5 mg MTT per 1 ml of PBS diluted in 9 ml of media. After 5 days of incubation, the treatment was removed from each of the wells and replaced with 100 μL of fresh MTT solution. The plate was then incubated for 3 h at 37 °C in a humidified incubator to allow the reduction of the yellow tetrazolium salt to purple formazan crystals. After the incubation, the MTT solution was removed from the wells and replaced with 100 μL of DMSO for 15 min to dissolve the formazan crystals. The absorbance was read at 570 nm using a spectrophotometric microplate reader (Thermo Fisher Scientific).
# (§3) Each of the experiments was performed at least three independent times, with a minimum of six technical replicates per experiment. Statistical analysis was carried out using GraphPad Prism version 8.0.0 (GraphPad Softwares, Inc.). Curve fitting and the IC50 values were obtained through the dose–response curves using nonlinear regression. To determine if the dose–response curves were statistically distinct and not overlapping, extra sum‐of‐squares F‐test was used, and a p‐value was obtained. The effect of compound treatment on both cell lines was statistically compared via two‐way ANOVA with Tukey's post‐test. The CytExpert (Beckman Coulter) software was used for flow cytometry analysis. Graphs represent the % dead cells whereby the total number of dead cells was divided by the total cell population. The statistical significance of the flow cytometry results was determined via one‐way analysis of variance (ANOVA) with Dunnett's T3 multiple comparison post‐test. Data is presented as the mean ± standard error of mean (SEM). Summary of results from statistical analysis reports p‐values as follows: ≥0.05 (ns), 0.01–0.05 (*), 0.001–0.01 (**), […], and <0.0001(****).
# U‐251 MG cells [2] = experiment: MTT cell viability assay, U‐251 MG glioblastoma cells, 5 days treatment; type: cell-based, human; conditions: 5 days treatment, 100–0 µM
# Description: as §1, §2, §3
# U‐251 MG cells [3] = test system: U‐251 MG cells; parameters: method as in He and colleagues (2021); conditions: after 2 days of treatment; ref He and colleagues (2021); read-out: cytotoxicity against U‐251 MG cells (IC50); cited from earlier work
# U‐251 MG cells [4] = experiment: Propidium iodide (PI) flow cytometry, cell membrane permeabilization; type: cell-based, human; conditions: 5 days; for PI: significance of cell death, Neg Ctrl v HNT: highest non-toxic concentration; for PI: significance of cell death, Neg Ctrl v 50 µM: highest toxic concentration 50 µM
# Description: Propidium iodide (PI) is a DNA staining, cell membrane impermeable dye which was used to assess cell death via loss of membrane integrity and is used to indicate necrotic or late apoptotic cells. Stock solutions of PI dye (Merck, Ireland) were prepared at 10 μg/mL in PBS and stored at −20 °C. U‐251 MG cells were seeded in 96‐well plates at a seeding density of 2 x 10^3 cells per well (100 μL), as previously stated. […] Subsequently, the compound was collected in 15 ml falcon tubes. Cells were washed with PBS (100 μL), and the PBS was collected in corresponding tubes to ensure all cells are collected. The cells were collected using 0.25% trypsin‐EDTA (50 μL) with a 6‐min incubation and media neutralization (100 μL). Each tube was centrifuged at 1200rpm for 5 min to obtain a pellet. The supernatant was removed, and the pellet was resuspended in PBS and transferred to an Eppendorf tube. Ten microliters of PI stain (2.5 μg/ml) was added to the Eppendorf tubes, and the tubes were incubated for a period of 15 min. Cells were also treated using controls whereby the positive control used was DMEM and 20% DMSO and the negative control used was fresh media. The cells were then analyzed using flow cytometry (Beckmann Coulter, CytExpert version 2.4.0.28). Fluorescence was measured using the FL2 channel. PI was detected in the red channel which is R‐phycoerythrin (PE‐Cy5). PE was used in combination with fluorescein isothiocyanate (FITC) and is excited at a wavelength of 488 nm.
# as §3
# U‐251 MG cells [5] = experiment: JC‐1 flow cytometry, mitochondrial membrane depolarization / apoptosis; type: cell-based, human; conditions: U‐251 MG, 5 days; for JC-1: significance of cell death, Neg Ctrl v HNT: highest non-toxic concentration; for JC-1: significance of cell death, Neg Ctrl v 50 µM: highest toxic concentration 50 µM
# Description: JC‐1 dye forms aggregates in healthy mitochondria which changes the fluorescent property of the dye. […] Stock solutions of JC‐1 dye (Merck) were prepared at 1 mg/mL in DMSO and stored at −20 °C. U‐251 MG cells were seeded in 6‐well plates (Sarstedt) at a seeding density of 2 x 10^4 cells per well (1000μL) after which cells were treated with drug concentrations (highest toxic, IC50, nontoxic). After 5 days incubation, the compound and wash step with PBS was collected in falcon tubes. The cells were then harvested by trypsinization (500 μL), incubated for a period of 6 min, neutralized with media (1000 μL), and pelleted at 1200rpm for 5 min. A JC‐1 working solution of 2 μg/mL was made up in DMEM and was light protected. The cell pellet was resuspended and stained with 2 μg/mL JC‐1 dye and incubated and protected from the light for a period of 10 min. Cells were then centrifuged at 1200rpm for 5 min. The supernatant was removed, and cells were washed with 1 mL of sterile PBS. This was repeated twice. […] Cells were also treated using controls whereby the positive control used was DMEM and 20% DMSO and the negative control used was fresh media. The cells were then analyzed using flow cytometry (Beckmann Coulter, CytExpert version 2.4.0.28). Fluorescence was measured using FL1 (FITC) (530 nm) and FL2 (PE) (595 nm) channels with emission.
# as §3
SMILES,Selectivity for cancer cells with IC50 < 50 [µM]‐Yes/No [1],All criteria met -Yes/No [1],"pIC50 (HEK293 cells; Homo sapiens, HEK293, 120 h)","pIC50 (U‐251 MG cells [2]; Homo sapiens, U-251, 120 h)",pIC50 (U‐251 MG cells [3]),pIC50 (HEK293 cells),"cytotoxicity / biological response in HEK293, in words (HEK293 cells; 5 days, up to 100 µM, threshold 50 µM)","cell membrane permeabilization‐dependent cell death (PI), in words (U‐251 MG cells [4])","PI: significance of cell death, Neg Ctrl v HNT (U‐251 MG cells [4])","PI: significance of cell death, Neg Ctrl v 50 µM (U‐251 MG cells [4])",pIC50 (U‐251 MG cells [2]),"JC-1: significance of cell death, Neg Ctrl v HNT (U‐251 MG cells [5])","JC-1: significance of cell death, Neg Ctrl v 50 µM (U‐251 MG cells [5])"
O=c1cc(-c2ccccc2)[nH]c2cc(-c3ccccc3)nn12 [Compound 15],No,No,4.80,4.70,4.11,,,,,,,,
O=c1cc(-c2cc(C(F)(F)F)cc(C(F)(F)F)c2)[nH]c2cc(-c3ccc(C(F)(F)F)cc3)nn12 [Compound 9],Yes,Yes,< 4.30,4.57,,4.26,did not elicit any biological response,significant cell membrane permeabilization‐dependent cell death,ns (≥0.05 (ns)),**** (<0.0001(****)),4.56,ns (≥0.05 (ns)),** (0.001 to 0.01 (**))
"O=c1cc(-c2cc(C(F)(F)F)cc(C(F)(F)F)c2)[nH]c2cc(-c3cccc(Br)c3)nn12 [Compound 21, 5‐(3,5‐Bis(trifluoromethyl)phenyl)‐2‐(3‐bromophenyl)pyrazolo[1,5‐α]pyrimidin‐7(4¬H)‐one]",Yes,Yes,4.72,6.15,,,,significant cell membrane permeabilization‐dependent cell death,ns (≥0.05 (ns)),**** (<0.0001(****)),6.15,*** (0.001 to 0.01(***)),*** (0.001 to 0.01(***))
